Data taken from patent US20220402973A1, “POLYPEPTIDE FRAGMENT C (MP-C) AND USE THEREOF” (SHANGHAI LONGXIN BIOMEDICAL TECHNOLOGY CO., LTD., priority 2021, published 2022).

B1: THTVGSYFSVQNGYVGAFSQALGNSEYAMNSPLGSLDGRTTMYNLLGVKYLFAREDQLKKQ (peptide, listed as Lactobacillus plantarum)
chain: THTVGSYFSVQNGYVGAFSQALGNSEYAMNSPLGSLDGRTTMYNLLGVKYLFAREDQLKKQ
notes: positive control

How the values were obtained:
Format in all cases: in vivo, mice (male C57BL6)
[1] = system: DSS-induced IBD in mice; test: Colon length in DSS-induced acute IBD mouse model; conditions: DSS 2.5 wt % induced IBD mice; 50 μg/kg intragastric daily; mean±SD; model group 6.4±0.5, blank 9.5±0.5; in cm (unit assumed)
Method: (§1) The administration of a DSS solution with a specified concentration to mice can induce an acute IBD model characterized by diarrhea, hematochezia, ulcer, and granulocyte infiltration. Mice were randomly grouped according to body weights of the mice. 40 healthy male C57BL6 mice were divided into four groups each with 10 mice: […]
(§2) After DSS induction, the body weight changes, activities, and feces viscosity of the mice in each group were recorded every day. […] A mouse colon between an anus end to an ileocecal end was integrally collected, and a length of the colon was measured; and the colon was dissected along a longitudinal axis, feces therein was rinsed off, and then the colon was stored in 4% […] or frozen at −80° C.
(§3) Experimental data in the above experimental method were expressed as (x±SD), the GraphPad Prism (ver. 8.0, GraphPad Software Inc., San Diego, Calif., USA) was used to plot a chart, the SPSS Program (ver. 25.0, SPSS Inc., Chicago, Ill., USA) was used for statistical test, and one-way ANOVA or independent two-sample t-test were used for significance test when the normality and homogeneity of variances were met. […]

[2] = system: DSS-induced IBD in mice; test: Colonic histopathological evaluation (HE staining) in DSS-induced IBD mice; conditions: DSS 2.5 wt % induced IBD mice, 50 μg/kg intragastric daily, mean±SD, model group 5.6±0.7, blank 0.0±0.0
From the text: (§4) The administration of a DSS solution with a specified concentration to mice can induce an acute IBD model characterized by diarrhea, hematochezia, ulcer, and granulocyte infiltration. Mice were randomly grouped according to body weights of the mice. 40 healthy male C57BL6 mice were divided into four groups each with 10 mice:
MIMP positive control group: the mice were each given a pre-administration process for one week, that is, the mice were each intragastrically administered with an MIMP solution of a mass fraction of 50 μg/kg for the first 7 days, and then from day 8, the mice were each intragastrically administered with a DSS aqueous solution of a mass fraction of 2.5 wt % (at a volume of 0.4 mL/20 g) and an MIMP solution of a mass fraction of 50 μg/kg (at a volume of 0.4 mL/20 g) every day; and […]
as §3

[3] = system: DSS-induced IBD in mice; test: DAI scoring in DSS-induced acute IBD mouse model; conditions: DSS 2.5 wt % induced IBD mice, 50 μg/kg intragastric daily; for DAI (disease activity index) score: 7 days pre-administration then with DSS, end of experiment, mean±SD, model group 3.7±0.6, blank 0.0±0.0; for body weight of mice (effect of intervention): versus model group
Method: as §4
blank control group: the mice were each intragastrically administered with water every day at a volume of 0.4 mL/20 g;
model group: the mice were each intragastrically administered with a DSS aqueous solution of a mass fraction of 2.5 wt % consecutively for 7 days, where the DSS aqueous solution was freshly prepared and changed every day;
(§5) MIMP positive control group: the mice were each given a pre-administration process for one week, that is, the mice were each intragastrically administered with an MIMP solution of a mass fraction of 50 μg/kg for the first 7 days, and then from day 8, the mice were each intragastrically administered with a DSS aqueous solution of a mass fraction of 2.5 wt % (at a volume of 0.4 mL/20 g) and an MIMP solution of a mass fraction of 50 μg/kg (at a volume of 0.4 mL/20 g) every day; and
as §5, with “MP-C experimental” for “MIMP positive control”, “MP-C” for “MIMP”, “and” for “and then”, “day.” for “day; and”
The body weight changes of mice in each group were recorded every day to determine whether the acute IBD mouse model was successfully established.
as §2
Experimental data in the above experimental method were expressed as (x±SD), the GraphPad Prism (ver. 8.0, GraphPad Software Inc., San Diego, Calif., USA) was used to plot a chart, the SPSS Program (ver. 25.0, SPSS Inc., Chicago, Ill., USA) was used for statistical test, and one-way ANOVA or independent two-sample t-test were used for significance test when the normality and homogeneity of variances were met. It was assumed that α=0.05, and P<0.05 indicates a statistically significant difference.

[4] = system: IFN-γ; test: ELISA of colonic IFN-γ expression in DSS-induced IBD mice; conditions: DSS 2.5 wt % induced IBD mice; 50 μg/kg intragastric daily; colon homogenate ELISA; mean±SD; model group 1223.1±41.5, blank 889.2±74.6
Method: as §1
The colon sample frozen at −80° C. in step 1.2 was placed in an EP tube, PBS and magnetic beads were added, and then the colon sample was subjected to ultrasonic homogenization in a tissue grinder; and a resulting homogenate was centrifuged, and a resulting supernatant was collected. […] Appropriate primary and secondary antibodies were used according to the instructions, an o-phenylenediamine (OPD) chromogenic solution was used for color development, and after the reaction was terminated, reading was conducted on a microplate reader at a wavelength of 490 nm, with three replicate wells for each sample.
as §3

Molecule	colon length [1]	colonic histopathologic score [2]	DAI (disease activity index) score [3]	body weight of mice (effect of intervention) [3]	expression level of IFN-γ in colon [4]
THTVGSYFVVQNGYVGAFSYALGNSEYAMSSPLGSLDGRTTRYNLL (THTVGSYFXVQNGYVGAFSXALGNSEYAMXSPLGSLDGRTTXYNLL; Sequence is synthesized; (9)..(9) Xaa can be Tyr, Val, Gly, Ser, or Gln; (20)..(20) Xaa can be Ser, Gln, Glu, or Tyr; (30)..(30) Xaa can be Asn, Thr, Ser, Pro, or Leu; (42)..(42) Xaa can be Gly, Arg, Met, or absent) [MP-C]	9.2±0.2	1.2±0.2	2.0±0.3	prevented the significant decrease in body weight	1068.4±61.2
B1	9.5±0.3	1.4±0.7	2.7±0.7	prevented the significant decrease in body weight	1011.4±79.5
